For one data set, the system named is MDA-MB-231 (TNBC). Nature of the data set: sulphorhodamine B (SRB) cytotoxicity assay. Conditions: 72 h incubation, mean ± SEM. It counts as cell-based, human. On the procedure:
(§1) The cytotoxicity profile of the ruthenium complexes […]-572, and POW-12A was assessed in various cancer cell lines, namely, human cervical cancer HeLa, prostate cancer cell line DU145, breast cancer cell line MDAMB231MB231, ovarian cancer cell line A2780, and cisplatin-resistant ovarian cancer cell line A2780-CP70, using the preferred screen of the National Cancer Institute, the sulphorhodamine (SRB) dye assay, and the trypan blue cell viability assay ([Skehan et al., 1990]; [Houghton et al., 2007]; [Strober, 2001]). To determine their selective toxicity profile, these complexes were also tested in a normal prostate cell line (PTN1A). From the similarity in chemical structures of the compounds, we deduced that a structure-activity relationship study will help elucidate key properties involved in the cytotoxic activity of this class of metal complexes. The sulphorhodamine B (SRB) assay was used to evaluate the cytotoxicity of each cancer line after treating them with the metal complexes in line with the previously established protocol ([Skehan et al., 1990]). A cell density of 3 × 10^4 cells/mL was treated with various concentrations (3, 10, 30, 50, and 100 μM) of each ruthenium complex by 1:200 dilutions of stock solutions (in DMSO) in culture media, using DMSO as a control. Then, 100 μL of the cell-drug suspension was added to the respective wells of a 96-well plate and incubated at 37°C for 72 h in a CO2-containing incubator. Following this, the cells were fixed using 25 ul of Carnoy's solution and left in the fridge (4°C) for 1 h. The plates were then rinsed with running water and tapped on paper to remove dead cells. The cells were then stained with 100 μL of sulphorhodamine B dye and left for 30 min, after which the dye was washed off using 1% acetic acid, and the plate was left to dry in the oven (60°C). The stained cells were then treated with 100 μL of Tris base (10 mM, pH 10) to solubilize the dye stain. Finally, the plates were analyzed using an Omega plate reader. Each assay was conducted in triplicate. % Cell response=Average of treated cells / Average of control cells x 100.
(In general: In SRB staining, fixed cells bind dye roughly in proportion to their protein.)

In the next data set the test system is A2780 ovarian cancer. Nature of the data set: sulphorhodamine B (SRB) cytotoxicity assay. It counts as cell-based, human. To be noted: SRB assay, 72 h incubation; mean ± SEM. On the procedure:
as §1

Another data set deals with DU145 prostate cancer. Put plainly: sulphorhodamine B (SRB) cytotoxicity assay. Conditions: 72 h incubation, mean ± SEM. It is filed as cell-based, human. As for the experimental part: as §1
A further data set concerns HeLa cervical cancer. Put plainly: sulphorhodamine B (SRB) cytotoxicity assay. It is filed as cell-based, human. Conditions: 72 h incubation, mean ± SEM. As for the experimental part: as §1
The subject of a further data set is PNT1A normal prostate. Nature of the data set: sulphorhodamine B (SRB) cytotoxicity assay. To be noted: SRB assay, 72 h incubation; mean ± SEM. It counts as cell-based, human. As for the experimental part: as §1
Data set [1] concerns A280-CP70 cisplatin-resistant ovarian cancer. Put plainly: sulphorhodamine B (SRB) cytotoxicity assay. It counts as cell-based, human. Conditions: for IC50: SRB assay, 72 h incubation, mean ± SEM. On the procedure:
as §1

A further data set has as its system various cell lines. Put plainly: epi-fluorescence nuclear staining (nuclear morphology). It counts as cell-based. Conditions: 72 h treatment, DAPI staining; cisplatin at 5 μM. On the procedure: To assess the nuclear morphological changes caused by ruthenium complexes on the cell lines, the cells were stained using 4′,6-diamidino-2-phenylindole DAPI dye and analyzed under an EVOS epi-fluorescence microscope at a magnification of ×60 ([Lewandowska et al., 2013]). The protocol involves treating the cells with the complexes, culturing them in 6-well plates, and incubating them at 37°C for 72 h. The cells were then rinsed with PBS, trypsinized, and neutralized using culture media. The cells were then spun in a centrifuge at 2500 RPM for 3 min, and the supernatant was discarded. The cell pellet was then fixed with 15 μL of Carnoy’s solution, resuspended, and spread on a microscope slide. When the cells were dried, 2–3 drops of DAPI were dropped on the smear in the dark and covered with a slip. The slides were then viewed under the epi-fluorescence microscope, and the nuclei were characterized qualitatively. A total of 30 cells per slide were counted, and the number of cells with various nuclear morphologies was recorded. Cells were then classed as normal, chromatin-condensed, swollen, nuclear-condensed, and nuclear-fragmented cells based on their nuclear morphology.

The subject of a further data set is DU145 cells. Put plainly: cell cycle analysis. Conditions: DU145, after 72 h; control 1%. It counts as cell-based, human. As for the experimental part:
(§2) The cell cycle of cervical HeLa and prostate DU145 cancer cells was studied after treatment with VNK-572 and cisplatin, respectively (Figure 3). VNK-572 and cisplatin both reduced the G2 population after 72 h compared to control (e.g., 16%–11% in Hela (p = 0.06) and from 17% to 2% in the DU145 cell line (p = 0.003) for VNK-572) (Figure 3A). […] The DU145 cells saw a decrease in both phases following 72 h of treatment—from 68% to 40% and from 11% to 5% for the G1 and S phases, respectively (Figure 3A).

Data set [2] concerns HeLa cells. Nature of the data set: cell cycle analysis. It is filed as cell-based, human. As for the experimental part:
as §2

The test system of data set [3] is HeLa cells. Nature of the data set: Annexin V apoptosis assay. It is filed as cell-based, human. On the procedure: To further analyze the cytotoxicity mechanisms, annexin V was used to determine whether VNK-572/cisplatin exerts an anti-cancer activity through apoptosis. The Annexin V assay was performed following the established procedure. The steps included treating the cells with the complex for 24, 48, and 72 h in 6-well plates and incubating at 37°C. The cells were then rinsed with PBS, trypsinized, and neutralized using culture media. The cells were then spun in the centrifuge at 2500 RPM for 3 min, and the supernatant was discarded. The cell pellet was then washed first with PBS and then with ×1 binding buffer. The cells were then suspended in approximately 1 mL of binding buffer (1–5 million cells), and approximately 100 ul of this suspension was stained with 5 μL of annexin V-APC dye for 15 min. The cells were then washed with binding buffer and resuspended in 200 μL of binding buffer before being stained with 5 ul of propidium iodide. The cells were then analyzed using a flow cytometer within 4 h.

In data set [4] the test system is HeLa cells. Put plainly: cellular localization by confocal fluorescence microscopy. To be noted: 50 μM, 2 h incubation, co-localization with DAPI. It is filed as cell-based, human. On the procedure: This was further confirmed by the co-localization of these complexes with a nuclear counterstain (DAPI) (Figure 2).
Fluorescence microscopy was used to study cellular localization. HeLa cells were seeded on autoclaved coverslips in the 6-well plate and incubated at 37°C for 48 h, after which the culture media were replaced with media containing VNK-572 (50 μM) and VNK-754 (50 μM), respectively, and further incubation was performed for 2 h. Following this, the cells were fixed with Carnoy’s solution and washed twice with PBS thereafter. Finally, the HeLa cells were counterstained with DAPI, and the seeded coverslips were inverted and placed on slides for examination. A Leica confocal microscope was used for the observation of the samples using a magnification of ×63.

The nature of data set [5]: partition coefficient (log P), shake-flask method. It is filed as physicochemical. Conditions: phosphate buffered saline (pH 7.4) / 1-octanol. The source says:
The role of lipophilicity in the activity of ruthenium (II) polypyridyl complexes is one that has been extensively reported ([Notaro and Gasser, 2017]). […] Based on this, we carried out a partition coefficient (log P) test using a shake-flask method to determine whether the marginal structural differences between VNK-754, VNK-572, and POW-12A affect their lipophilicity and to examine whether such a difference in lipophilicity confers any advantage to their anti-cancer activity. The log P results, as presented in Table 2, clearly show VNK-572 (0.014) and POW-12A (0.077) to be more lipophilic than VNK-754 (−0.874). […] Thus, along with varied DNA intercalating properties, this explains, in part, why there are appreciable differences in the cytotoxic effects of VNK572 and POW12A compared to VNK-754, even though they are generally similar in structure. For example, VNK-572 with an additional benzene ring can penetrate the bi-lipid-layered cell membrane better and achieve higher cellular and nuclear concentrations than VNK-754, producing a greater anti-tumor effect.
To study the lipophilicity of our complexes, we used the shake-flask method at 25.0 °C ± 0.1°C in line with the previously reported protocol ([Dubey et al., 2017]). Equal volumes of the aqueous phase (phosphate buffered saline, pH 7.4) and the 1-octanol phase were pre-saturated with each other overnight. A known amount of the complexes (respectively) was added to the aqueous phase, ensuring our final concentration was within the range of UV spectroscopic analysis; then, an equal volume of the pre-saturated […] phase was added. Both phases were then mixed in a conical flask and left shaking on a thermostatic shaker at a speed of 100 rpm overnight at room temperature. […] Considering that lipophilic compounds will partition into the octanol phase, the concentration of the complexes left in the aqueous phase was analyzed, respectively, by UV spectroscopy; then, the Log P value was calculated: Logp = Log10 ([solute] un-ionized octanol/[solute] un-ionized water).

Data set [6] deals with RF I φX174 supercoiled circular DNA. Put plainly: supercoiled DNA unwinding by atomic force microscopy. Conditions: AFM; P/D = 14 for POW-12A and VNK-572, P/D = 5 for VNK-754. It is filed as binding. On the procedure:
FIGURE 7 AFM height images RF I φX174 on a magnesium-soaked mica surface over an area of 2 µm. Samples with the ruthenium complex had solution mixing ratios of P/D = 14 for POW-12A and VNK-572; and of P/D = 5 VNK-754.
Samples for atomic force microscopy (AFM) were prepared on mica crystals cut into squares of approximately 1 cm^2. These squares were stuck with double-sided tape to a 15-mm diameter metal disc. Before sample preparation, Cellotape was used to remove the top layer of the mica crystal, giving a freshly cleaved surface layer on which the sample is to be deposited. Mica was soaked in a 0.1 M solution of MgCl2 for 5 min and blown dry, and Mg^2+ was used to help DNA (negatively charged) adhere to the negatively charged surface of the mica. For solutions containing DNA and POW-12A or VNK-572, a P/D value of 14 was used. For the solution containing DNA and VNK-754, a P/D value of 5 was used. Then, 2 μL of the solution was pipetted onto the mica surface and left for 10 min until the solvent had evaporated, leaving the DNA adhered to the surface. To remove excess salt, each sample was washed three times with 10 µL nanopure water, drying with nitrogen after each wash. AFM was conducted using a Bruker Multi-mode 2 atomic force microscope operated with a NanoScope V controller. ScanAsyst-AIR AFM tips were purchased from Bruker. Scans were run in tapping mode using ScanAsyst, measuring height, peak force error, and phase. The spring constant was adjusted to the spring constant of the tip, which is 0.4 N m^−1 for ScanAsyst-AIR tips; feedback parameters were set automatically by ScanAsyst Auto. Scans were run over 2 μm^2 areas with 512 lines. Images were prepared using NanoScope analysis software. Raw data were processed using first-order flattening and third-order plane fitting. If the background required smoothening due to large molecules on the surface, first-order flattening with a threshold of Z < 0.05 nm was used to improve the appearance of the background. […]

Consider `N.N.[Cl][Pt][Cl]` [Cisplatin, cisplatin, reference compound], for which the IC50 was 37 ± 8.08 µM with MDA-MB-231 (TNBC); 2 µM in the data set on A2780 ovarian cancer; 2.4 ± 0.09 µM in the data set with DU145 prostate cancer; 6 ± 0.58 µM in the data set with HeLa cervical cancer; 3.8 ± 0.58 µM with PNT1A normal prostate; 4 ± 0.58 µM in [1]. Moreover, the “resistance factor (IC50 A2780-CP70/IC50 A2780)” value in data set [1] (from SRB IC50 values) is on record as “two-fold”. In the data set with various cell lines, the nuclear morphology entry is reported as “nuclear swelling”. Further, the sub-G1 population in the data set on DU145 cells came out at 62%; in the data set on HeLa cells [2] (72 h of treatment, control 5% (VNK-572), 6% (cisplatin)), 25%. For the same compound, the “changes in G1 / S phases” value in the data set on HeLa cells [2] is given as “increase in S-phase arrest”. Also, the “Q2 (propidium iodide and annexin V APC-stained cells), late-stage apoptosis” value in the data set with HeLa cells [3] (72 h of treatment, control 2%) is 9%. In addition, in the data set with HeLa cells [3] (72 h of treatment, control 14% (VNK-572), 13% (cisplatin)), the “Q4 (annexin V APC), early apoptosis” value is 39%. Moreover, the “Q1 (necrosis)” value in the data set with HeLa cells [3] (after 72 h of treatment) is reported as less than 6%.
For the compound `F[P-](F)(F)(F)(F)F.F[P-](F)(F)(F)(F)F.[Ru+2].c1cnc2c(c1)c1cccnc1c1ncccc21.c1cnc2c(c1)ccc1cccnc12.c1cnc2c(c1)ccc1cccnc12` [VNK-754, ruthenium (II) bis-phenanthroline dipyridoquinoline], the IC50 is greater than 100 µM in the data set on MDA-MB-231 (TNBC); 74 ± 14.4 µM in the data set with A2780 ovarian cancer; greater than 100 µM in the data set with DU145 prostate cancer; greater than 100 µM in the data set with HeLa cervical cancer; greater than 100 µM in the data set with PNT1A normal prostate; greater than 100 µM in data set [1]. The cellular localization entry in the data set with HeLa cells [4] is “penetrate the nucleus”. This compound had a LogP in data set [5] of −0.874. Also, the “unwinding of supercoiled circular DNA” value in data set [6] is given as “unwound”.

For orientation: IC50 means the concentration that inhibits the measured activity by half. For orientation: LogP means the decadic logarithm of the partition coefficient of the neutral form, usually between octanol and water. Read a high LogP as higher lipophilicity.
